According to patent US5891869A, “Basic oxazoline-amide derivatives of GE2270 and GE2270-like antibiotics” (Biosearch Italia, S.p.A., priority 1995, dated 1999):

Tests used:
Staph. haemolyticus L602 = test: MIC by microbroth dilution; type: cell-based, Staphylococcus haemolyticus; details: 0,01% BSA, 10^4 CFU/ml, 18-24 h, Iso-Sensitest broth
Experimental: (§1) The minimal inhibitory concentration (MIC) has been determined by microbroth dilution methodology, in the presence of 0,01% (w/v) of bovine serum albumin (BSA). BSA is added to the diluent to avoid possible adherence of the compounds of the invention to the plastic surface of the microtiter wells, as disclosed also by B. Goldstein et al., Antimicrobial Agents and Chemotherapy, 37 (1993), 741-745.
(§2) Inocula were 10^4 CFU/ml, except for Propionibacterium acnes and Bacteroides fragilis (10^5 CFU/ml) MICs were read after 18-24 h, except for Haemophilus influenzae, P. acnes, B. fragilis (48 h).
(§3) All microorganisms were incubated at 37° C.; H. influenzae in a 5% CO2 atmosphere, anaerobes in a N2 --CO2 --H2 (80:10:10) mixture; other organisms in air.
(§4) The growth media are: Oxoid Iso-Sensitest broth for staphylococci and Enterococcus faecalis); Difco Todd Hewitt broth for streptococci; Difco brain heart infusion broth+1% Difco Supplement C. for H. influenzae; Difco Wilkins-Chalgren broth for anaerobes.

[1] = system: Propionibact. acnes ATCC 6919 L1014; test: MIC by microbroth dilution; type: cell-based, Propionibacterium acnes; details: 0,01% BSA, 10^5 CFU/ml, 48 h, anaerobic, Wilkins-Chalgren broth
Experimental: as §1, §2, §3, §4

[2] = system: Staphylococcus aureus L165; test: MIC by microbroth dilution; type: cell-based; details: 0,01% BSA, inoculum 10^4 CFU/ml, read after 18-24 h, Iso-Sensitest broth
Experimental: as §1, §2, §3, §4

[3] = system: Enterococcus faecalis ATCC 7080 L149; test: MIC by microbroth dilution; type: cell-based; details: Enterococc. faecalis ATCC 7080 L149; 0,01% BSA; 10^4 CFU/ml; 18-24 h; Iso-Sensitest broth
Experimental: as §1, §2, §3, §4

[4] = system: Streptococcus pyogenes L49; test: MIC by microbroth dilution; type: cell-based; details: 0,01% BSA, 10^4 CFU/ml, 18-24 h, Todd Hewitt broth
Experimental: as §1, §2, §3, §4

[5] = system: Bacteroides fragilis ATCC 25285 L1011; test: MIC by microbroth dilution; type: cell-based; details: 0,01% BSA, 10^5 CFU/ml, 48 h, anaerobic, Wilkins-Chalgren broth
Experimental: as §1, §2, §3, §4

[6] = system: Haemoph. influenzae ATCC 19418 L970; test: MIC by microbroth dilution; type: cell-based, Haemophilus influenzae; details: 0,01% BSA, 10^4 CFU/ml, 48 h, 5% CO2, brain heart infusion broth+1% Supplement C
Experimental: as §1, §2, §3, §4

[7] = system: Staph. epidermidis ATCC 12228 L147; test: MIC by microbroth dilution; type: cell-based, Staphylococcus epidermidis; details: 0,01% BSA, 10^4 CFU/ml, 18-24 h, Iso-Sensitest broth
Experimental: as §1, §2, §3, §4

Strept. pneumoniae L44 = test: MIC by microbroth dilution; type: cell-based, Streptococcus pneumoniae; details: 0,01% BSA, 10^4 CFU/ml, 18-24 h, Todd Hewitt broth
Experimental: as §1, §2, §3, §4

gram positive bacteria = details: from K. Shimanaka et al.; cited from earlier work
Strept. agalactiae L310 = test: MIC by microbroth dilution; type: cell-based, Streptococcus agalactiae; details: 0,01% BSA, 10^4 CFU/ml, 18-24 h, Todd Hewitt broth
Experimental: as §1, §2, §3, §4

Strept. sanguis L1721 = test: MIC by microbroth dilution; type: cell-based, Streptococcus sanguis; details: 0,01% BSA, 10^4 CFU/ml, 18-24 h, Todd Hewitt broth
Experimental: as §1, §2, §3, §4

| SMILES | MIC of the compounds (Staph. haemolyticus L602) [µg/mL] | MIC of the compounds [1] [µg/mL] | MIC of the compounds [2] [µg/mL] | MIC of the compounds [3] [µg/mL] | MIC of the compounds [4] [µg/mL] | MIC of the compounds [5] [µg/mL] | MIC of the compounds [6] [µg/mL] | MIC of the compounds [7] [µg/mL] | MIC of the compounds (Strept. pneumoniae L44) [µg/mL] | antimicrobial activity (gram positive bacteria) | MIC of the compounds (Strept. agalactiae L310) [µg/mL] | MIC of the compounds (Strept. sanguis L1721) [µg/mL] |
| --- | --- | --- | --- | --- | --- | --- | --- | --- | --- | --- | --- | --- |
| CNC(=O)CC1NC(=O)c2csc(n2)-c2ccc(-c3nc(C4=NC(C(=O)NC5CNC(C(N)=O)C5)CO4)cs3)nc2-c2csc(n2)-c2csc(n2)C(C(O)c2ccccc2)NC(=O)CNC(=O)c2nc(sc2COC)C(C(C)C)NC(=O)c2nc1sc2C.O=C(O)C(F)(F)F (mixture of isomers) [Compound 13] | 0.5 | 0.13 | 0.13 | 0.06 | 4 | > 128 | 128 | 0.5 | 0.5 |  |  |  |
| CNC(=O)CC1NC(=O)c2csc(n2)-c2ccc(-c3nc(C4=NC(C(=O)N5CCCC5C(N)=O)CO4)cs3)nc2-c2csc(n2)-c2csc(n2)C(C(C)C)NC(=O)CNC(=O)c2csc(n2)C(C(C)C)NC(=O)c2nc1sc2C (stereo not shown) [amythiamicin factor A] |  |  |  |  |  |  |  |  |  | shows antimicrobial activity against gram positive bacteria |  |  |
| CNC(=O)CC1NC(=O)c2csc(n2)-c2ccc(-c3nc(C4=NC(C(=O)N5CCC(N(C)C)CC5)CO4)cs3)nc2-c2csc(n2)-c2csc(n2)C(C(O)c2ccccc2)NC(=O)CNC(=O)c2nc(sc2COC)C(C(C)C)NC(=O)c2nc1sc2C (stereo not shown) [Compound 10s] | 0.13 | 0.016 | 0.03 | 0.03 | 1 | 8 | 8 | 0.06 | 0.5 |  | 2 | 0.5 |
| CNC(=O)CC1NC(=O)c2csc(n2)-c2ccc(-c3nc(C4=NC(C(=O)N(C)CCN(C)C)CO4)cs3)nc2-c2csc(n2)-c2csc(n2)C(C(O)c2ccccc2)NC(=O)CNC(=O)c2nc(sc2COC)C(C(C)C)NC(=O)c2nc1sc2C (stereo not shown) [Compound 4s] | 0.06 | 0.03 | 0.06 | 0.016 | 1 | 8 | 64 | 0.06 | 0.25 |  | 0.5 | 0.13 |
| CNC(=O)CC1NC(=O)c2csc(n2)-c2ccc(-c3nc(C4=NC(C(=O)N(C)CCN5CCN(CCO)CC5)CO4)cs3)nc2-c2csc(n2)-c2csc(n2)C(C(O)c2ccccc2)NC(=O)CNC(=O)c2nc(sc2COC)C(C(C)C)NC(=O)c2nc1sc2C (mixture of isomers) [Compound 19] | 0.13 | 0.016 | 0.06 | 0.016 | 1 | 4 | 16 | 0.13 | 0.13 |  | 2 | 0.13 |
| CNC(=O)CC1NC(=O)c2csc(n2)-c2ccc(-c3nc(C4=NC(C(=O)N(C)CCN5CCN(CCO)CC5)CO4)cs3)nc2-c2csc(n2)-c2csc(n2)C(C(O)c2ccccc2)NC(=O)CNC(=O)c2nc(sc2COC)C(C(C)C)NC(=O)c2nc1sc2C (stereo not shown) [Compound 19s] | 0.13 | 0.016 | 0.06 | 0.016 | 1 | 8 | 8 | 0.06 | 0.13 |  |  |  |
